In US20230136562A1, “SPIROUREA DERIVATIVES” (Idorsia Pharmaceuticals Ltd, priority 2020, published 2023):
Where two headings read alike, the source gives them in different places.

Test system: primary neuronal cultures from embryonic rat brains
Assay: Rat oscillation assay (FLIPR, neuronal calcium oscillations)
Assay type: cell-based
Experimental: A) Rat Oscillation Assay:
This assay is a functional phenotypic assay designed to mimic epileptic seizures using primary neuronal cultures from embryonic rat brains, which form a functional neuronal network that generate synchronized intracellular calcium concentration oscillations when cultured at high density in 384-well plate. The epileptic phenotype is induced by incubating the neurons in magnesium-free assay buffer, that results in increased probability of NMDA receptor activation, leading to an increased frequency and amplitude of intracellular calcium oscillations. Once neurons are incubated with the calcium indicator dye Fluo-8 AM (Tebu-bio), neuronal calcium oscillations can be monitored in real time using FLIPR® Tetra (fluorometric plate reader, Molecular Devices). With these recordings, the effect of anti-epileptic drugs can be quantified. The anti-epileptic effect of compounds, which activate directly or indirectly the Kv7 channels can be modulated by the Kv7 channel blocker XE-991. The assay was performed as described previously (Pacico N, Mingorance-Le Meur A. New In Vitro Phenotypic Assay for Epilepsy: Fluorescent Measurement of Synchronized Neuronal Calcium Oscillations. PLoS ONE 9(1) 2014) with modifications described hereafter.
Animal care followed standard procedures in accordance with swiss institutional guidelines. Dissociated neuronal cultures were obtained from cerebral cortices of embryonic Wistar rats at embryonic stage E18 (Charles River). The uterine horns were removed by caesarian surgery from deeply anesthetized rats (Isofurane) and sacrificed by decapitation. The embryos were decapitated by closing forceps. The brains were isolated and dissected one by one in ice-cold PBS (Life Technologies) under optical control using a binocular. Meninges, olfactory bulbs, and basal ganglia were removed. Cortical hemispheres (still including the hippocampus) were cut in small pieces with tweezers and placed on ice in pre-chilled Hibernate-E medium (Life technology). The hemispheres were then incubated in 10 mL of Hibernate-E containing 15 U/mL papain (Worthington) for 25 min at 30° C. with gentle mixing every 10 min. Genomic DNA was then digested by prolonging the incubation during 10 min at 37° C. in presence of 4 U/mL rDNase I (Ambion). The obtained suspension was then centrifuged at 800 g for 5 min and the cell pellet was resuspended in 2 mL Hibernate-E and gently dissociated by pipetting up and down 10 times with a plastic Pasteur pipette resulting in a homogenous cell suspension. This suspension was immediately filtered through a 70 µm cell strainer (MACS® SmartStrainer, Miltenyi), collected in 10 mL Hibernate-E and centrifuged at 800 g for 5 min. The cell pellet was resuspended in Neurobasal medium, supplemented with 2% B-27, 0.5 mM Glutamax-I, 100 U/mL penicillin, 100 µg/mL streptomycin (Life Technologies) and diluted at the final concentration of 300′000 cells/mL. One day before plating the cells, 384-well plates were coated with 25 μL/well of 0.1% poly-L-lysine solution (Sigma), incubated overnight at 37° C., washed two times with sterile distilled water and allowed to dry at room temperature for >2 h. The neurons were seeded at a density of 15′000 cells/well in 50 μL/well in a 384-well black, clear-bottomed plates (Corning) and subsequently maintained in an incubator at 37° C., 5% CO2 and 95% humidity for 8 to 10 days. After 3 and 7 days, 40% of media was renewed under sterile conditions.
Protocol Rat Oscillation Assay
Neurons seeded in the assay plates were washed with Hank's balanced salt solution (HBSS) devoid of Ca^2+ and Mg^2+, supplemented with 20 mM HEPES (Life Technologies) and 2 mM CaCl2 (Sigma), pH 7.4 (hereafter called Assay buffer) using a Biotek EL406 plate washer. Neurons were loaded with 1 μM Fluo-8 AM in Assay buffer for 15 min at 37° C., 5% CO2. […]

[1] = Rattus norvegicus, 20 min, AUC of fluorescence measured 20 min after compound addition, read-out: FLIPR: IC50 [nM] 20 min
[2] = Rattus norvegicus, Acute phase, ratio of AUC fluorescence before and after compound addition, read-out: FLIPR: IC50 [nM] acute

SMILES | IC50 [1] [nM] | IC50 [2] [nM] | IC50 (AUC of fluorescence measured 20 min after compound addition, read-out: FLIPR: IC50 [nM] 20 min) [nM] | IC50 (Acute phase, ratio of AUC fluorescence before and after compound addition, read-out: FLIPR: IC50 [nM] acute) [nM]
COCC(Oc1cccc(CNC(=O)NC2CC3(CCC3)C2)n1)C(F)(F)F (racemic) [Example 104, (±)-1-Spiro[3.3]hept-2-yl-3-[6-(2,2,2-trifluoro-1-methoxymethyl-ethoxy)-pyridin-2-ylmethyl]-urea] | 295 | 292 | – | –
Cn1nnc(C(NC(=O)NC2CC3(CCC3)C2)c2cccc(C(F)(F)F)c2)n1 (racemic) [Example 164, (±)-1-[(2-Methyl-2H-tetrazol-5-yl)-(3-trifluoromethyl-phenyl)-methyl]-3-spiro[3.3]hept-2-yl-urea] | 619 | 267 | – | –
CC(NC(=O)NC1CC2(CCC2)C1)c1cccc(S(F)(F)(F)(F)F)c1 (racemic) [Example 34, (±)-1-(1-(3-(pentafluoro-λ^6-sulfaneyl)phenyl)ethyl)-3-(spiro[3.3]heptan-2-yl)urea] | 8.5 | 6.7 | – | –
CC(NC(=O)NC1CC2(CCC2)C1)c1ccc(F)c(OCC(F)(F)F)c1 (racemic) [Example 113, (±)-1-{1-[4-Fluoro-3-(2,2,2-trifluoro-ethoxy)-phenyl]-ethyl}-3-spiro[3.3]hept-2-yl-urea] | 22 | 33 | – | –
COc1ccc(C(F)(F)F)cc1C(C)NC(=O)NC1CC2(CCC2)C1 (racemic) [Example 20, (±)-1-[1-(2-Methoxy-5-trifluoromethyl-phenyl)-ethyl]-3-spiro[3.3]hept-2-yl-urea] | 304 | 508 | – | –
O=C(NCc1cc(C(F)(F)F)ccc1O)NC1CC2(CCC2)C1 [Example 38, 1-(2-Hydroxy-5-trifluoromethyl-benzyl)-3-spiro[3.3]hept-2-yl-urea] | 330 | 627 | – | –
CNC(=O)C(NC(=O)NC1CC2(CCC2)C1)c1cccc(C(F)(F)F)c1 (racemic) [Example 63, (±)-N-Methyl-2-(3-spiro[3.3]hept-2-yl-ureido)-2-(3-trifluoromethyl-phenyl)-acetamide] | 92 | 46 | – | –
COc1c(OCC(F)(F)F)ncnc1C(C)NC(=O)NC1CC2(CC2)C1 (racemic) [Example 152, (±)-1-{1-[5-Methoxy-6-(2,2,2-trifluoro-ethoxy)-pyrimidin-4-yl]-ethyl}-3-spiro[2.3]hex-5-yl-urea] | 532 | 520 | – | –
O=C(NC1CC2(CCC2)C1)NC(c1cccc(C(F)(F)F)c1)C(F)(F)F (centres unmarked) [Example 58, 1-Spiro[3.3]hept-2-yl-3-[2,2,2-trifluoro-1-(3-trifluoromethyl-phenyl)-ethyl]-urea] | 16 | 20 | – | –
O=C(NCc1cccc(C(F)(F)F)c1Cl)NC1CC2(CC2)C1 [Example 150, 1-(2-Chloro-3-trifluoromethyl-benzyl)-3-spiro[2.3]hex-5-yl-urea] | 1160 | 1080 | – | –
CC(Oc1ccnc(CNC(=O)NC2CC3(CCC3)C2)c1)C(F)(F)F (racemic) [Example 117, (±)-1-Spiro[3.3]hept-2-yl-3-[4-(2,2,2-trifluoro-1-methyl-ethoxy)-pyridin-2-ylmethyl]-urea] | 286 | 195 | – | –
C[C@H](NC(=O)NC1CC2(CCC2)C1)c1cccc(OC(F)F)c1 (single isomer, unassigned) [Example 173] | 11 | 7 | – | –
CC(Oc1cc(CNC(=O)NC2CC3(CC3)C2)ncn1)C(F)(F)F (racemic) [Example 120, (±)-1-Spiro[2.3]hex-5-yl-3-[6-(2,2,2-trifluoro-1-methyl-ethoxy)-pyrimidin-4-ylmethyl]-urea] | 151 | 136 | – | –
CC(Oc1nccc(CNC(=O)NC2CC3(CCC3)C2)n1)C(F)(F)F (single isomer, unassigned) [Example 181, 1-Spiro[3.3]hept-2-yl-3-[2-(2,2,2-trifluoro-1-methyl-ethoxy)-pyrimidin-4-ylmethyl]-urea] | – | – | 564 | 404
C[C@H](NC(=O)NC1CC2(CCC2)C1)c1cccc(OCC(F)(F)F)c1 (single isomer, unassigned) [Example 176] | 4.3 | 2.9 | – | –
COc1c(CNC(=O)NC2CC3(CCC3)C2)cccc1C(F)(F)F [Example 22, 1-(2-Methoxy-3-trifluoromethyl-benzyl)-3-spiro[3.3]hept-2-yl-urea] | 268 | 275 | – | –
COc1ccc(C(F)(F)F)cc1CNC(=O)NC1CC2(CC2)C1 [Example 125, 1-(2-Methoxy-5-trifluoromethyl-benzyl)-3-spiro[2.3]hex-5-yl-urea] | 1990 | 1820 | – | –
COCC(Oc1cc(CNC(=O)NC2CC3(CCC3)C2)ccn1)C(F)(F)F (racemic) [Example 107, (±)-1-Spiro[3.3]hept-2-yl-3-[2-(2,2,2-trifluoro-1-methoxymethyl-ethoxy)-pyridin-4-ylmethyl]-urea] | 91 | 72 | – | –
CN(CC(F)(F)F)c1cc(CNC(=O)NC2CC3(CCC3)C2)ccn1 [Example 115, 1-{2-[Methyl-(2,2,2-trifluoro-ethyl)-amino]-pyridin-4-ylmethyl}-3-spiro[3.3]hept-2-yl-urea] | 241 | 185 | – | –
C=CCC(NC(=O)NC1CC2(CCC2)C1)c1cccc(C(F)(F)F)c1 (racemic) [Example 80, (±)-1-Spiro[3.3]hept-2-yl-3-[1-(3-trifluoromethyl-phenyl)-but-3-enyl]-urea] | 14 | 13 | – | –
O=C(NC1CC2(CCC2)C1)NC(c1cccc(C(F)(F)F)c1)c1c[nH]nn1 (racemic) [Example 162, (±)-1-Spiro[3.3]hept-2-yl-3-[(1H-[1,2,3]triazol-4-yl)-(3-trifluoromethyl-phenyl)-methyl]-urea] | 124 | 120 | – | –
COc1ccc(C(C)NC(=O)NC2CC3(CCC3)C2)cc1OCC(F)(F)F (racemic) [Example 28, (±)-1-{1-[4-Methoxy-3-(2,2,2-trifluoro-ethoxy)-phenyl]-ethyl}-3-spiro[3.3]hept-2-yl-urea] | 600 | 629 | – | –
CC(NC(=O)NC1CC2(CC2)C1)c1cccc(OC(F)(F)F)c1 (racemic) [Example 141, (±)-1-Spiro[2.3]hex-5-yl-3-[1-(3-trifluoromethoxy-phenyl)-ethyl]-urea] | 26 | 22 | – | –
N#CC(NC(=O)NC1CC2(CCC2)C1)c1cccc(C(F)(F)F)c1 (racemic) [Example 89, 1-[(±)-Cyano-(3-trifluoromethyl-phenyl)-methyl]-3-spiro[3.3]hept-2-yl-urea] | 74 | 75 | – | –
O=C(NC1CC2(CCC2)C1)NC(c1cccc(C(F)(F)F)c1)C1CC1 (racemic) [Example 24, (±)-1-[Cyclopropyl-(3-trifluoromethyl-phenyl)-methyl]-3-spiro[3.3]hept-2-yl-urea] | 8.6 | 14 | – | –
O=C(NC1CC2(CCC2)C1)N[C@H](CO)c1cccc(C(F)(F)F)c1 (single isomer, unassigned) [Example 185] | 753 | 936 | – | –
CC(NC(=O)NC1CC2(CCC2)C1)c1cc(OCC(F)(F)F)ncn1 (racemic) [Example 61, (±)-1-Spiro[3.3]hept-2-yl-3-{1-[6-(2,2,2-trifluoro-ethoxy)-pyrimidin-4-yl]-ethyl}-urea] | 25 | 14 | – | –
O=C(NC1CC2(CCC2)C1)NC(c1cccc(OC(F)F)c1)C1CC1 (racemic) [Example 25, (±)-1-[Cyclopropyl-(3-difluoromethoxy-phenyl)-methyl]-3-spiro[3.3]hept-2-yl-urea] | 19 | 10 | – | –
